Converted amounts (≈) assume the structure as drawn.
Assays:
Assay type in all cases: functional
Streptococcus pneumoniae [1] = assay: Bactericidal activity against Streptococcus pneumoniae PU 09 harboring mef gene incubated for 16 to 20 hrs by CLSI based broth microdilution method; details: time 16-20 hrs
Haemophilus influenzae [2] = assay: Antibacterial activity against Haemophilus influenzae ATCC 49247 incubated for 16 to 20 hrs by CLSI based broth microdilution method; details: time 16-20 hrs
Streptococcus pneumoniae [3] = assay: Antibacterial activity against Streptococcus pneumoniae 07P390 harboring c-erm gene incubated for 16 to 20 hrs by CLSI based broth microdilution method; details: time 16-20 hrs
Streptococcus pneumoniae [4] = assay: Bactericidal activity against Streptococcus pneumoniae 07P390 harboring c-erm gene incubated for 16 to 20 hrs by CLSI based broth microdilution method; details: time 16-20 hrs
Streptococcus pneumoniae [5] = assay: Bactericidal activity against Streptococcus pneumoniae ATCC 49619 incubated for 16 to 20 hrs by CLSI based broth microdilution method; details: time 16-20 hrs
Streptococcus pneumoniae [6] = assay: Selectivity ratio of MBC for Streptococcus pneumoniae 07P390 harboring c-erm gene to MIC for Streptococcus pneumoniae 07P390 harboring c-erm gene
Staphylococcus aureus [7] = assay: Antibacterial activity against methicillin-resistant Staphylococcus aureus PU 32 harboring i-ermA gene incubated for 16 to 20 hrs by CLSI based broth microdilution method; details: time 16-20 hrs
Streptococcus pyogenes [8] = assay: Antibacterial activity against Streptococcus pyogenes 01-968 harboring i-ermB gene incubated for 16 to 20 hrs by CLSI based broth microdilution method; details: time 16-20 hrs
Streptococcus pneumoniae [9] = assay: Antibacterial activity against Streptococcus pneumoniae PU 09 harboring mef gene incubated for 16 to 20 hrs by CLSI based broth microdilution method; details: time 16-20 hrs
Streptococcus pneumoniae [10] = assay: Antibacterial activity against Streptococcus pneumoniae ATCC 49619 incubated for 16 to 20 hrs by CLSI based broth microdilution method; details: time 16-20 hrs
Streptococcus pneumoniae [11] = assay: Selectivity ratio of MBC for Streptococcus pneumoniae PU 09 harboring mef gene to MIC for Streptococcus pneumoniae PU 09 harboring mef gene
Staphylococcus aureus [12] = assay: Bactericidal activity against methicillin-resistant Staphylococcus aureus PU 20 harboring c-ermA gene incubated for 16 to 20 hrs by CLSI based broth microdilution method; details: time 16-20 hrs
Staphylococcus aureus [13] = assay: Selectivity ratio of MBC for methicillin-resistant Staphylococcus aureus PU 32 harboring i-ermA gene to MIC for methicillin-resistant Staphylococcus aureus PU 32 harboring i-ermA gene
Staphylococcus aureus [14] = assay: Bactericidal activity against methicillin-resistant Staphylococcus aureus PU 32 harboring i-ermA gene incubated for 16 to 20 hrs by CLSI based broth microdilution method; details: time 16-20 hrs
Streptococcus pneumoniae [15] = assay: Selectivity ratio of MBC for Streptococcus pneumoniae ATCC 49619 to MIC for Streptococcus pneumoniae ATCC 49619
Haemophilus influenzae [16] = assay: Bactericidal activity against Haemophilus influenzae ATCC 49247 incubated for 16 to 20 hrs by CLSI based broth microdilution method; details: time 16-20 hrs
Streptococcus pyogenes [17] = assay: Bactericidal activity against Streptococcus pyogenes 01-968 harboring i-ermB gene incubated for 16 to 20 hrs by CLSI based broth microdilution method; details: time 16-20 hrs
Streptococcus pyogenes [18] = assay: Selectivity ratio of MBC for Streptococcus pyogenes 01-968 harboring i-ermB gene to MIC for Streptococcus pyogenes 01-968 harboring i-ermB gene
Haemophilus influenzae [19] = assay: Selectivity ratio of MBC for Haemophilus influenzae ATCC 49247 to MIC for Haemophilus influenzae ATCC 49247
Staphylococcus aureus [20] = assay: Antibacterial activity against methicillin-resistant Staphylococcus aureus PU 20 harboring c-ermA gene incubated for 16 to 20 hrs by CLSI based broth microdilution method; details: time 16-20 hrs

## CC[C@H]1OC(=O)[C@H](C)[C@@H](OC(=O)CCNCCCCNc2cc3c(cc2F)c(=O)c(C(=O)O)cn3C2CC2)[C@H](C)[C@@H](O[C@@H]2O[C@H](C)C[C@H](N(C)C)[C@H]2O)[C@](C)(OC)C[C@@H](C)/C(=N\OC/C=C/c2ccc3c(c2)c(=O)c(C(N)=O)cn3CC)[C@H](C)[C@H]2OC(=O)O[C@@]21C
Streptococcus pneumoniae [1]
  MBC: 0.06 µg/mL (≈ 0.0472 µM)
Haemophilus influenzae [2]
  MIC: 8 µg/mL (≈ 6.29 µM)
Streptococcus pneumoniae [3]
  MIC: 0.25 µg/mL (≈ 0.196 µM)
Streptococcus pneumoniae [4]
  MBC: 2 µg/mL (≈ 1.57 µM)
Streptococcus pneumoniae [5]
  MBC: 0.12 µg/mL (≈ 0.0943 µM)
Streptococcus pneumoniae [6]
  Selectivity ratio: 8
Staphylococcus aureus [7]
  MIC: 64 µg/mL (≈ 50.3 µM)
Streptococcus pyogenes [8]
  MIC: 0.25 µg/mL (≈ 0.196 µM)
Streptococcus pneumoniae [9]
  MIC: 0.06 µg/mL (≈ 0.0472 µM)
Streptococcus pneumoniae [10]
  MIC: 0.06 µg/mL (≈ 0.0472 µM)
Streptococcus pneumoniae [11]
  Selectivity ratio: 1
Staphylococcus aureus [12]
  MBC: > 256 µg/mL
Staphylococcus aureus [13]
  Selectivity ratio: >4
Staphylococcus aureus [14]
  MBC: > 256 µg/mL
Streptococcus pneumoniae [15]
  Selectivity ratio: 2
Haemophilus influenzae [16]
  MBC: 8 µg/mL (≈ 6.29 µM)
Streptococcus pyogenes [17]
  MBC: > 2 µg/mL
Streptococcus pyogenes [18]
  Selectivity ratio: >8
Haemophilus influenzae [19]
  Selectivity ratio: 1
Staphylococcus aureus [20]
  MIC: > 256 µg/mL

## CC[C@H]1OC(=O)[C@H](C)[C@@H](OC(=O)CCNCCCCNc2cc3c(cc2F)c(=O)c(C(=O)O)cn3C2CC2)[C@H](C)[C@@H](O[C@@H]2O[C@H](C)C[C@H](N(C)C)[C@H]2O)[C@](C)(OC)C[C@@H](C)/C(=N\OCC#Cc2cncc(C(=O)NC3CC3)c2)[C@H](C)[C@H]2OC(=O)O[C@@]21C
Streptococcus pneumoniae [1]
  MBC: 0.008 µg/mL (≈ 0.00658 µM)
Haemophilus influenzae [2]
  MIC: 8 µg/mL (≈ 6.58 µM)
Streptococcus pneumoniae [3]
  MIC: 0.03 µg/mL (≈ 0.0247 µM)
Streptococcus pneumoniae [4]
  MBC: > 0.25 µg/mL
Streptococcus pneumoniae [5]
  MBC: 0.008 µg/mL (≈ 0.00658 µM)
Streptococcus pneumoniae [6]
  Selectivity ratio: >8
Staphylococcus aureus [7]
  MIC: 32 µg/mL (≈ 26.3 µM)
Streptococcus pyogenes [8]
  MIC: 0.06 µg/mL (≈ 0.0493 µM)
Streptococcus pneumoniae [9]
  MIC: ≤ 0.008 µg/mL
Streptococcus pneumoniae [10]
  MIC: ≤ 0.008 µg/mL
Staphylococcus aureus [12]
  MBC: > 256 µg/mL
Staphylococcus aureus [13]
  Selectivity ratio: 2
Staphylococcus aureus [14]
  MBC: 64 µg/mL (≈ 52.6 µM)
Streptococcus pneumoniae [15]
  Selectivity ratio: >=1
Haemophilus influenzae [16]
  MBC: 8 µg/mL (≈ 6.58 µM)
Streptococcus pyogenes [17]
  MBC: > 0.5 µg/mL
Streptococcus pyogenes [18]
  Selectivity ratio: >8
Haemophilus influenzae [19]
  Selectivity ratio: 1
Staphylococcus aureus [20]
  MIC: 128 µg/mL (≈ 105 µM)

## CC[C@H]1OC(=O)[C@H](C)[C@@H](OC(=O)CCNCCCCNc2cc3c(cc2F)c(=O)c(C(=O)O)cn3C2CC2)[C@H](C)[C@@H](O[C@@H]2O[C@H](C)C[C@H](N(C)C)[C@H]2O)[C@](C)(OC)C[C@@H](C)/C(=N\OC/C=C/c2cncc(C(=O)NC)c2)[C@H](C)[C@H]2OC(=O)O[C@@]21C
Streptococcus pneumoniae [1]
  MBC: 0.06 µg/mL (≈ 0.0503 µM)
Haemophilus influenzae [2]
  MIC: 2 µg/mL (≈ 1.68 µM)
Streptococcus pneumoniae [3]
  MIC: 2 µg/mL (≈ 1.68 µM)
Streptococcus pneumoniae [4]
  MBC: 2 µg/mL (≈ 1.68 µM)
Streptococcus pneumoniae [5]
  MBC: 0.008 µg/mL (≈ 0.00671 µM)
Streptococcus pneumoniae [6]
  Selectivity ratio: 1
Staphylococcus aureus [7]
  MIC: 32 µg/mL (≈ 26.8 µM)
Streptococcus pyogenes [8]
  MIC: 0.12 µg/mL (≈ 0.101 µM)
Streptococcus pneumoniae [9]
  MIC: 0.06 µg/mL (≈ 0.0503 µM)
Streptococcus pneumoniae [10]
  MIC: ≤ 0.008 µg/mL
Streptococcus pneumoniae [11]
  Selectivity ratio: 1
Staphylococcus aureus [12]
  MBC: > 256 µg/mL
Staphylococcus aureus [13]
  Selectivity ratio: >8
Staphylococcus aureus [14]
  MBC: > 256 µg/mL
Streptococcus pneumoniae [15]
  Selectivity ratio: >=1
Haemophilus influenzae [16]
  MBC: 4 µg/mL (≈ 3.35 µM)
Streptococcus pyogenes [17]
  MBC: > 1 µg/mL
Streptococcus pyogenes [18]
  Selectivity ratio: >8
Haemophilus influenzae [19]
  Selectivity ratio: 2
Staphylococcus aureus [20]
  MIC: > 256 µg/mL

## CC[C@H]1OC(=O)[C@H](C)[C@@H](OC(=O)CCNCCCCNc2cc3c(cc2F)c(=O)c(C(=O)O)cn3C2CC2)[C@H](C)[C@@H](O[C@@H]2O[C@H](C)C[C@H](N(C)C)[C@H]2O)[C@](C)(OC)C[C@@H](C)/C(=N\OCCCc2cncc(C(=O)NC)c2)[C@H](C)[C@H]2OC(=O)O[C@@]21C
Streptococcus pneumoniae [1]
  MBC: 0.03 µg/mL (≈ 0.0251 µM)
Haemophilus influenzae [2]
  MIC: 8 µg/mL (≈ 6.7 µM)
Streptococcus pneumoniae [3]
  MIC: 0.03 µg/mL (≈ 0.0251 µM)
Streptococcus pneumoniae [4]
  MBC: 0.12 µg/mL (≈ 0.1 µM)
Streptococcus pneumoniae [5]
  MBC: 0.008 µg/mL (≈ 0.0067 µM)
Streptococcus pneumoniae [6]
  Selectivity ratio: 4
Staphylococcus aureus [7]
  MIC: 32 µg/mL (≈ 26.8 µM)
Streptococcus pyogenes [8]
  MIC: 0.25 µg/mL (≈ 0.209 µM)
Streptococcus pneumoniae [9]
  MIC: ≤ 0.008 µg/mL
Streptococcus pneumoniae [10]
  MIC: ≤ 0.008 µg/mL
Streptococcus pneumoniae [11]
  Selectivity ratio: >=4
Staphylococcus aureus [12]
  MBC: > 256 µg/mL
Staphylococcus aureus [13]
  Selectivity ratio: 1
Staphylococcus aureus [14]
  MBC: 32 µg/mL (≈ 26.8 µM)
Streptococcus pneumoniae [15]
  Selectivity ratio: >=1
Haemophilus influenzae [16]
  MBC: 16 µg/mL (≈ 13.4 µM)
Streptococcus pyogenes [17]
  MBC: > 2 µg/mL
Streptococcus pyogenes [18]
  Selectivity ratio: >8
Haemophilus influenzae [19]
  Selectivity ratio: 2
Staphylococcus aureus [20]
  MIC: > 256 µg/mL

## CC[C@H]1OC(=O)[C@H](C)[C@@H](OC(=O)CCN2CCN(c3cc4c(cc3F)c(=O)c(C(=O)O)cn4C3CC3)CC2)[C@H](C)[C@@H](O[C@@H]2O[C@H](C)C[C@H](N(C)C)[C@H]2O)[C@](C)(OC)C[C@@H](C)/C(=N\OCC#Cc2cncc(C(=O)NC)c2)[C@H](C)[C@H]2OC(=O)O[C@@]21C
Streptococcus pneumoniae [1]
  MBC: 0.5 µg/mL (≈ 0.421 µM)
Haemophilus influenzae [2]
  MIC: 4 µg/mL (≈ 3.37 µM)
Streptococcus pneumoniae [3]
  MIC: 4 µg/mL (≈ 3.37 µM)
Streptococcus pneumoniae [4]
  MBC: 32 µg/mL (≈ 26.9 µM)
Streptococcus pneumoniae [5]
  MBC: 0.25 µg/mL (≈ 0.21 µM)
Streptococcus pneumoniae [6]
  Selectivity ratio: 8
Staphylococcus aureus [7]
  MIC: 64 µg/mL (≈ 53.9 µM)
Streptococcus pyogenes [8]
  MIC: 16 µg/mL (≈ 13.5 µM)
Streptococcus pneumoniae [9]
  MIC: 0.12 µg/mL (≈ 0.101 µM)
Streptococcus pneumoniae [10]
  MIC: 0.03 µg/mL (≈ 0.0252 µM)
Streptococcus pneumoniae [11]
  Selectivity ratio: 4
Staphylococcus aureus [12]
  MBC: > 256 µg/mL
Staphylococcus aureus [13]
  Selectivity ratio: >4
Staphylococcus aureus [14]
  MBC: > 256 µg/mL
Streptococcus pneumoniae [15]
  Selectivity ratio: 8
Haemophilus influenzae [16]
  MBC: 4 µg/mL (≈ 3.37 µM)
Streptococcus pyogenes [17]
  MBC: > 128 µg/mL
Streptococcus pyogenes [18]
  Selectivity ratio: >8
Haemophilus influenzae [19]
  Selectivity ratio: 1
Staphylococcus aureus [20]
  MIC: > 256 µg/mL

Reference: ChEMBL document CHEMBL5608186, “Design, synthesis and structure-activity relationships of novel non-ketolides: 9-Oxime clarithromycin featured with seven-to thirteen-atom-length diamine linkers at 3-OH” (Eur J Med Chem, 2024)
